# PubChem BioAssay AID274 (DTP/NCI, 2004)
# “And” between values parts separate entries of the source, which are not always exact repeats. Equal entries are not always repeated. Inconclusive results and toxic doses are left out.
# Test system: BDF1 mice, Lewis lung carcinoma iv, survival T/C
# Experiment: NCI In Vivo Anticancer Drug Screen. Data for tumor model Lewis Lung Carcinoma (intravenous) in B6D2F1 (BDF1) mice
# Details: endpoint: median survival time, higher = longer survival
# Experimental: The antitumor activity of compounds was measured in mice bearing transplantable tumors. Survival or tumor size were measured and the results are expressed as the measurement made in the treated group (T) divided by the measurement made in the vehicle treated control group (C). The tumor model used in this assay is Lewis Lung Carcinoma (intravenous) in B6D2F1 (BDF1) mice
# [1] = dose: 3.13 mg/kg/injection, schedule: Q01DX009 (ip), vehicle: Klucel (hydroxypropylcellulose) (HPC)
# [2] = dose: 6.25 mg/kg/injection, schedule: Q01DX009 (ip), vehicle: Klucel (hydroxypropylcellulose) (HPC)
# [3] = dose: 12.5 mg/kg/injection, schedule: Q01DX009 (ip), vehicle: Klucel (hydroxypropylcellulose) (HPC)
# [4] = dose: 25.0 mg/kg/injection, schedule: Q01DX009 (ip), vehicle: Klucel (hydroxypropylcellulose) (HPC)
# [5] = dose: 12.5 mg/kg/injection, schedule: Q01DX009 (ip), vehicle: saline with Tween-80
# [6] = dose: 25.0 mg/kg/injection, schedule: Q01DX009 (ip), vehicle: saline with Tween-80
# [7] = dose: 50.0 mg/kg/injection, schedule: Q01DX009 (ip), vehicle: saline with Tween-80
# [8] = dose: 100.0 mg/kg/injection, schedule: Q01DX009 (ip), vehicle: saline with Tween-80
# [9] = dose: 200.0 mg/kg/injection, schedule: Q01DX009 (ip), vehicle: saline with Tween-80
# [10] = dose: 400.0 mg/kg/injection, schedule: Q01DX009 (ip), vehicle: saline with Tween-80
# [11] = dose: 6.25 mg/kg/injection, schedule: Q01DX009 (ip), vehicle: saline with Tween-80
# [12] = dose: 50.0 mg/kg/injection, schedule: Q01DX009 (ip), vehicle: Klucel (hydroxypropylcellulose) (HPC)
smiles,measurement,setting,value
COc1cc2c[n+](C)c3c4cc5c(cc4ccc3c2cc1OC)OCO5 (tested in a mixture with another compound),T/C,[1],103 % of control
same,T/C,[2],184 % of control
same,T/C,[3],120 % of control
same,T/C,[4],120 % of control
Cc1ccc(S(=O)(=O)NC(=O)OC23COCN2COC3)cc1,T/C,[5],98 % of control
same,T/C,[6],105 % of control
same,T/C,[7],96 % of control
same,T/C,[8],98 % of control
same,T/C,[9],98 % of control
same,T/C,[10],101 % of control
COc1cc2ccnc(C=O)c2cc1OC,T/C,[6],107 % of control
same,T/C,[7],102 % of control
same,T/C,[8],102 % of control
same,T/C,[9],108 % of control
CCCCCCCCCCCCCCCCCCNC(=S)N/N=C/c1ccc(Cl)cc1Cl,T/C,[8],110 % of control
same,T/C,[9],108 % of control
same,T/C,[10],93 % of control
CC(=O)N(C)c1ccc(Nc2cc(C)[nH]c3ccc4ncnc4c23)cc1,T/C,"dose: 6.25 mg/kg/injection, schedule: Q01DX009 (ip), vehicle: saline",97 % of control
same,T/C,"dose: 12.5 mg/kg/injection, schedule: Q01DX009 (ip), vehicle: saline",93 % of control
same,T/C,"dose: 25.0 mg/kg/injection, schedule: Q01DX009 (ip), vehicle: saline",93 % of control
same,T/C,"dose: 50.0 mg/kg/injection, schedule: Q01DX009 (ip), vehicle: saline",117 % of control
Nc1ncnc2c1ncn2C1OC(COP(=O)(O)O)C(O)C1O (centres undefined),T/C,"dose: 12.5 mg/kg/injection, schedule: Q01DX009 (ip), vehicle: water",104 % of control
same,T/C,"dose: 25.0 mg/kg/injection, schedule: Q01DX009 (ip), vehicle: water",112 % of control
same,T/C,"dose: 50.0 mg/kg/injection, schedule: Q01DX009 (ip), vehicle: water",100 % of control
same,T/C,"dose: 100.0 mg/kg/injection, schedule: Q01DX009 (ip), vehicle: saline",97 % of control
same,T/C,"dose: 100.0 mg/kg/injection, schedule: Q01DX009 (ip), vehicle: water",103 % of control
same,T/C,"dose: 200.0 mg/kg/injection, schedule: Q01DX009 (ip), vehicle: saline",118 % of control
same,T/C,"dose: 200.0 mg/kg/injection, schedule: Q01DX009 (ip), vehicle: water",100 % of control
same,T/C,"dose: 400.0 mg/kg/injection, schedule: Q01DX009 (ip), vehicle: saline",96 % of control
same,T/C,"dose: 800.0 mg/kg/injection, schedule: Q01DX009 (ip), vehicle: saline",108 % of control
CO[C@@]12[C@H](COC(N)=O)C3=C(C(=O)C(C)=C(N)C3=O)N1C[C@@H]1N[C@@H]12,T/C,"dose: 0.12 mg/kg/injection, schedule: Q01DX009 (ip), vehicle: saline",101 % of control
same,T/C,"dose: 0.25 mg/kg/injection, schedule: Q01DX009 (ip), vehicle: saline",105 % of control
same,T/C,"dose: 0.5 mg/kg/injection, schedule: Q01DX009 (ip), vehicle: saline",98 % of control
same,T/C,"dose: 1.0 mg/kg/injection, schedule: Q01DX009 (ip), vehicle: saline",101 % of control
CCCCc1ccc2nc(NC(=O)OC)[nH]c2c1,T/C,[11],94 % of control
same,T/C,[5],92 % of control
same,T/C,[6],103 % of control
same,T/C,[7],102 % of control
same,T/C,[8],107 % of control
CC(=O)NC(CCc1ccc(Cl)c(Cl)c1)c1cccc(O)c(=O)c1 (centres undefined),T/C,[2],97 % of control
same,T/C,[3],99 % of control
same,T/C,[4],95 % of control
same,T/C,[12],96 % of control
Cc1c[nH]c(=O)[nH]c1=O,T/C,"dose: 32.0 mg/kg/injection, schedule: Q01DX009 (ip), vehicle: Klucel (hydroxypropylcellulose) (HPC)",104 % of control
same,T/C,"dose: 64.0 mg/kg/injection, schedule: Q01DX009 (ip), vehicle: Klucel (hydroxypropylcellulose) (HPC)",114 % of control
same,T/C,"dose: 128.0 mg/kg/injection, schedule: Q01DX009 (ip), vehicle: Klucel (hydroxypropylcellulose) (HPC)",93 % of control
same,T/C,"dose: 256.0 mg/kg/injection, schedule: Q01DX009 (ip), vehicle: Klucel (hydroxypropylcellulose) (HPC)",101 % of control
same,T/C,"dose: 512.0 mg/kg/injection, schedule: Q01DX009 (ip), vehicle: Klucel (hydroxypropylcellulose) (HPC)",92 % of control
N#Cc1nc(C#N)c(Sc2ccccc2)c(Sc2ccccc2)c1Sc1ccccc1,T/C,"dose: 3.12 mg/kg/injection, schedule: Q01DX009 (ip), vehicle: saline with Tween-80",95 % of control
same,T/C,[11],94 % of control
same,T/C,[5],97 % of control
same,T/C,[6],95 % of control
same,T/C,[7],98 % of control
same,T/C,[8],98 % of control
CCc1c(CC(=O)O)c2cc(C)ccc2n1Cc1ccc(Cl)cc1,T/C,"dose: 3.12 mg/kg/injection, schedule: Q01DX009 (ip), vehicle: Klucel (hydroxypropylcellulose) (HPC)",110 % of control
same,T/C,[1],119 % of control
same,T/C,[2],105 % of control and 108 % of control
same,T/C,[3],100 % of control and 117 % of control
same,T/C,[4],91 % of control and 99 % of control
same,T/C,[12],95 % of control and 119 % of control
same,T/C,"dose: 100.0 mg/kg/injection, schedule: Q01DX009 (ip), vehicle: Klucel (hydroxypropylcellulose) (HPC)",112 % of control and 88 % of control
O=C(O)CC(NC(=O)CP(=O)(O)O)C(=O)O (centres undefined),T/C,"dose: 490.0 mg/kg/injection, schedule: Q04DX003 (ip), vehicle: saline",165 % of control
same,T/C,"dose: 700.0 mg/kg/injection, schedule: Q04DX003 (ip), vehicle: saline",100 % of control
CN(Cc1cnc2nc(N)nc(N)c2n1)c1c(Cl)cc(C(=O)NC(CCC(=O)O)C(=O)O)cc1Cl (centres undefined),T/C,[3],96 % of control
same,T/C,[4],93 % of control
same,T/C,[12],98 % of control
O=C(O)CC[S-].[Ag+],T/C,[7],99 % of control
same,T/C,[8],102 % of control
same,T/C,[9],91 % of control
